Measurements taken from paper PMC6934871, “High resolution structural and functional analysis of a hemopexin motif protein from Dolichos” (Scientific Reports, 2019).

Biological target: DC25
Test: SPR (Biacore T200, DC25 immobilized on CM5, […] Langmuir fit); also inhibits peroxidase activity of purified DC25
Type: binding, Lablab purpureus

`O=S(=O)(O)c1ccc(-c2c3nc(c(-c4ccc(S(=O)(=O)O)cc4)c4ccc([nH]4)c(-c4ccc(S(=O)(=O)O)cc4)c4nc(c(-c5ccc(S(=O)(=O)O)cc5)c5ccc2[nH]5)C=C4)C=C3)cc1` [TPPS4] gave a Kd of 1.21 µM.
